# Data as given in PMC12078333, “Pharmacokinetic evaluation and bioavailability of KPT-335 (Verdinexor) in cats” (Frontiers in Veterinary Science, 2025).
# Like-named read-outs stand apart in the source and are kept apart here.
# Experiment: Pharmacokinetics study of KPT-335 in cats (i.v. injection, p.o. capsules and tablets; UPLC-MS/MS, non-compartmental analysis)
# Type: in vivo
# Conditions: both sexes, plasma, cats; for AUC(0-t): read-out: AUClast; for AUC(0-inf): read-out: AUCINF_obs; for Cmax: read-out: Cmax
# Protocol: In this study, a parallel trial design was employed, 42 adult domestic cats (21 males and 21 females), aged 1 to 2 years and weighing 2.5 ± 0.25 kg. Cats were grouped by random number, with half male and female in each group, and all cats were determined to be systemically healthy during an initial screening visit 1 week prior to the experiment. They were acclimatized to the laboratory environment for 7 days before the study commenced. During this period, they were kept in solitary cages with free access to water. Cats in the fasting group were deprived of food for 12 h prior to and 2 h following drug administration, while those in the feeding group were fed twice a day. Food and water sources were consistent throughout the trail. During and at the end of the experiment, we systematically assessed the adverse reactions by recording parameters such as body weight, behavior, and coat gloss in all test cats both before and after the trial. These observations were conducted to evaluate whether any adverse reactions occurred. All procedures were reviewed and approved by the Institutional Animal Care and Use Committee of China Agricultural University (11305-23-E-002).
# The UPLC-MS/MS system utilized a UPLC 1290 (Agilent) paired with a Phenomenex Kinetex C18 column (50 mm × 2.1 mm, 2.6 μm) for separation at a flow rate of 0.3 mL/min. The chromatographic mobile phase comprised water (A) and acetonitrile (B), both containing 0.1% formic acid. The gradient elution program was as follows: from 0.5 to 2.5 min, 10 to 95% B; from 2.5 to 4.5 min, 95% B; from 4.5 to 4.6 min, 95 to 10% B; and from 4.6 to 6.0 min, 10% B. The injection volume was 2 μL.
# For mass spectrometry, an Agilent 6,475-LC-TQ equipped with an electrospray ion source was used. Multiple Reaction Monitoring (MRM) was selected to quantify KPT-335 in the positive ion mode. The ion transitions monitored were m/z 443.1 → 334.0 and 443.1 → 110.1 for KPT-335, and m/z 444.1 → 334.0 for the internal standard (IS). The cone voltage and collision energy were optimized for KPT-335 and the IS individually, set at 160 V and 25 eV, respectively. The optimized parameters for the instrument included an ion source temperature of 350°C, solvent removal temperature of 320°C, capillary voltage of 3.0 kV, and a solvent gas flow rate of 300 L/h.
# The method was developed based on prior research conducted in the laboratory ([16]) and validated in accordance with international guidelines ([17]). The calibration concentration range for KPT-335 spanned from 0.5 to 100 ng/mL, with a lower limit of quantification (LLOQ) set at 0.5 ng/mL. The squared correlation coefficient (R^2) values exceeded 0.999, indicating high linearity.
# For sample preparation, 100 μL of plasma was mixed with 10 μL of internal standard (IS) and 900 μL of acetonitrile, followed by vortexing for 2 min. The mixture was then centrifuged at 13,400 × g at 4°C for 10 min. The supernatant was filtered through a 0.22 μm organic membrane, and the resulting sample was analyzed using UPLC-MS/MS.
# Cats were divided into seven groups, with six cats in each group. In the intravenous (i.v.) group (Group 1), cats received an injection of KPT-335 at a dosage of 1 mg/kg body weight (BW), administered via a bolus through a venous infusion needle. For the oral (p.o.) administration, cats were given capsules in a fasting state at doses of 0.2 mg/kg BW (Group 2), 1 mg/kg BW (Group 3), and 2 mg/kg BW (Group 4). Additionally, tablets were administered at 1 mg/kg BW (fasting, Group 5), 1 mg/kg BW (Group 6), and 2 mg/kg BW (Group 7) in a feeding state, followed by 3 mL of water delivered with a syringe.
# For the p.o. administration, blood samples of 1.5 mL were collected via the brachial cephalic vein prior to administration and at 0.167, 0.333, 0.5, 0.75, 1, 1.5, 2, 4, 6, 8, 12, 24, 32, and 48 h post-administration. […]
# [1] = cat, iv, 1 mg/kg, i.v. 1 mg/kg BW, mean, read-out: Plasma concentration Mean
# [2] = cat, iv, 1 mg/kg, i.v. 1 mg/kg BW, mean
# [3] = cat, po, 0.2 mg/kg, capsule p.o. 0.2 mg/kg BW, mean, read-out: Plasma concentration Mean
# [4] = cat, po, 0.2 mg/kg, capsule p.o. 0.2 mg/kg BW, mean
# [5] = cat, po, 1 mg/kg, capsule p.o. 1 mg/kg BW, mean, read-out: Plasma concentration Mean
# [6] = cat, po, 1 mg/kg, capsule p.o. 1 mg/kg BW, mean
# [7] = cat, po, 1 mg/kg, capsule p.o. 1 mg/kg BW, individual cats 1-6, read-out: Plasma concentration
# [8] = cat, po, 1 mg/kg, tablet p.o. 1 mg/kg BW after fasting, individual cats 1-6, read-out: Plasma concentration
# [9] = cat, po, 1 mg/kg, tablet p.o. 1 mg/kg BW after fasting, mean, read-out: Plasma concentration Mean
# [10] = cat, po, 1 mg/kg, tablet p.o. 1 mg/kg BW after fasting, mean
# [11] = cat, po, 1 mg/kg, tablet p.o. 1 mg/kg BW after feeding, mean, read-out: Plasma concentration Mean
# [12] = cat, po, 1 mg/kg, tablet p.o. 1 mg/kg BW after feeding, mean
# [13] = cat, po, 2 mg/kg, capsule p.o. 2 mg/kg BW, mean, read-out: Plasma concentration Mean
# [14] = cat, po, 2 mg/kg, capsule p.o. 2 mg/kg BW, mean
# [15] = cat, po, 2 mg/kg, tablet p.o. 2 mg/kg BW after feeding, mean, read-out: Plasma concentration Mean
# [16] = cat, po, 2 mg/kg, tablet p.o. 2 mg/kg BW after feeding, mean
# [17] = cat, po, 2 mg/kg, tablet p.o. 2 mg/kg BW after feeding, individual cats 1-6, read-out: Plasma concentration
# [18] = iv, 1 mg/kg, i.v., Injection, 1 mg/kg BW
# [19] = po, 0.2 mg/kg, p.o., Capsule, Fasting, 0.2 mg/kg BW
structure (smiles),measurement,setting,value
O=C(/C=C\n1cnc(-c2cc(C(F)(F)F)cc(C(F)(F)F)c2)n1)NNc1ccccn1 [KPT-335],concentration at 0.083 h,"cat, iv, 1 mg/kg, i.v. 1 mg/kg BW, 0.083 h, mean",844 ng/mL
same,concentration at 0.167 h,[1],812 ng/mL
same,concentration at 0.25 h,"cat, iv, 1 mg/kg, i.v. 1 mg/kg BW, 0.25 h, mean",767 ng/mL
same,concentration at 0.33 h,[2],733 ng/mL
same,concentration at 0.5 h,[2],667 ng/mL
same,concentration at 0.75 h,[2],526 ng/mL
same,concentration at 1 h,[1],531 ng/mL
same,concentration at 2 h,[1],441 ng/mL
same,concentration at 4 h,[1],255 ng/mL
same,concentration at 8 h,[2],95.9 ng/mL
same,concentration at 12 h,[2],39.5 ng/mL
same,concentration at 24 h,[2],10.2 ng/mL
same,concentration at 32 h,[2],4.86 ng/mL
same,half-life,"cat, other: i.v. and p.o., i.v. and p.o. routes, all groups, read-out: half-life (T1/2), range over all groups",3.5 to 7 h
same,concentration at 0.167 h,[3],1.34 ng/mL
same,concentration at 0.33 h,[4],6.56 ng/mL
same,concentration at 0.5 h,[4],13.6 ng/mL
same,concentration at 0.75 h,[4],20.8 ng/mL
same,concentration at 1 h,[3],21.5 ng/mL
same,concentration at 1.5 h,[3],22.9 ng/mL
same,concentration at 2 h,[3],22.4 ng/mL
same,concentration at 4 h,[3],17.9 ng/mL
same,concentration at 6 h,[4],15.5 ng/mL
same,concentration at 8 h,[4],13.9 ng/mL
same,concentration at 12 h,[4],9.36 ng/mL
same,concentration at 24 h,[4],3.49 ng/mL
same,concentration at 32 h,[4],3.58 ng/mL
same,concentration at 0.167 h,[5],4.97 ng/mL
same,concentration at 0.33 h,[6],39.5 ng/mL
same,concentration at 0.5 h,[6],100 ng/mL
same,concentration at 0.75 h,[6],174 ng/mL
same,concentration at 1 h,[7],161 ng/mL
same,concentration at 1 h,[5],233 ng/mL
same,concentration at 1.5 h,[5],250 ng/mL
same,concentration at 2 h,[5],227 ng/mL
same,concentration at 4 h,[5],153 ng/mL
same,concentration at 6 h,[6],79.2 ng/mL
same,concentration at 8 h,[6],53.1 ng/mL
same,concentration at 12 h,[6],24.6 ng/mL
same,concentration at 24 h,[6],5.57 ng/mL
same,concentration at 32 h,[6],1.82 ng/mL
same,concentration at 48 h,[7],0.69 ng/mL
same,concentration at 48 h,[5],0.84 ng/mL
same,AUC(0-t),"cat, po, 1 mg/kg, p.o., Tablet, Feeding, 1 mg/kg BW",2270 ± 1250 ng·h/mL
same,concentration at 0.167 h,[8],5.51 ng/mL
same,concentration at 0.167 h,[9],5.66 ng/mL
same,concentration at 0.33 h,[10],77.5 ng/mL
same,concentration at 0.5 h,[10],204 ng/mL
same,concentration at 0.75 h,[10],223 ng/mL
same,concentration at 1 h,[9],227 ng/mL
same,concentration at 1.5 h,[9],235 ng/mL
same,concentration at 2 h,[8],208 ng/mL
same,concentration at 2 h,[9],216 ng/mL
same,concentration at 4 h,[8],209 ng/mL
same,concentration at 4 h,[9],187 ng/mL
same,concentration at 6 h,[10],154 ng/mL
same,concentration at 8 h,[10],121 ng/mL
same,concentration at 12 h,[10],74.1 ng/mL
same,concentration at 24 h,[10],15.5 ng/mL
same,concentration at 32 h,[10],5.11 ng/mL
same,concentration at 48 h,[9],2.26 ng/mL
same,concentration at 0.167 h,[11],13.8 ng/mL
same,concentration at 0.33 h,[12],79.1 ng/mL
same,concentration at 0.5 h,[12],148 ng/mL
same,concentration at 0.75 h,[12],257 ng/mL
same,concentration at 1 h,[11],334 ng/mL
same,concentration at 1.5 h,[11],321 ng/mL
same,concentration at 2 h,[11],304 ng/mL
same,concentration at 4 h,[11],211 ng/mL
same,concentration at 6 h,[12],146 ng/mL
same,concentration at 8 h,[12],107 ng/mL
same,concentration at 12 h,[12],52.1 ng/mL
same,concentration at 24 h,[12],7.74 ng/mL
same,concentration at 32 h,[12],3.37 ng/mL
same,concentration at 48 h,[11],1.25 ng/mL
same,concentration at 0.167 h,[13],0.68 ng/mL
same,concentration at 0.33 h,[14],8.76 ng/mL
same,concentration at 0.5 h,[14],52.5 ng/mL
same,concentration at 0.75 h,[14],152 ng/mL
same,concentration at 1 h,[13],206 ng/mL
same,concentration at 1.5 h,[13],272 ng/mL
same,concentration at 2 h,[13],269 ng/mL
same,concentration at 4 h,[13],187 ng/mL
same,concentration at 6 h,[14],111 ng/mL
same,concentration at 8 h,[14],74.1 ng/mL
same,concentration at 12 h,[14],40.1 ng/mL
same,concentration at 24 h,[14],9.56 ng/mL
same,concentration at 32 h,[14],4.07 ng/mL
same,concentration at 48 h,[13],1.28 ng/mL
same,AUC(0-t),"cat, po, 2 mg/kg, p.o., Tablet, Feeding, 2 mg/kg BW",3000 ng·h/mL
same,concentration at 0.167 h,[15],16.9 ng/mL
same,concentration at 0.33 h,[16],95.9 ng/mL
same,concentration at 0.5 h,[16],222 ng/mL
same,concentration at 0.75 h,[16],389 ng/mL
same,concentration at 1 h,[17],288 ng/mL
same,concentration at 1 h,[15],464 ng/mL
same,concentration at 1.5 h,[17],366 ng/mL
same,concentration at 1.5 h,[15],555 ng/mL
same,concentration at 2 h,[17],303 ng/mL
same,concentration at 2 h,[15],516 ng/mL
same,concentration at 4 h,[15],333 ng/mL
same,concentration at 6 h,[16],187 ng/mL
same,concentration at 8 h,[16],126 ng/mL
same,concentration at 12 h,[16],45 ng/mL
same,concentration at 24 h,[16],6.55 ng/mL
same,concentration at 32 h,[16],2.28 ng/mL
same,Tmax,"cat, po, all p.o. groups, read-out: Tmax after oral (p.o.) administration",1 to 2.5 h
same,bioavailability,"cat, po, p.o. capsules 0.2–2 mg/kg BW, read-out: absolute bioavailability, capsule group range",28.9 to 44.7%
same,bioavailability,"cat, po, p.o. tablets 1–2 mg/kg BW, read-out: absolute bioavailability, tablet group range",47.3 to 75.9%
same,MRT last,"iv, 1 mg/kg, Injection, 1 mg/kg BW",4.73 ± 1.1 h
same,AUC(0-inf),[18],3200 ± 851 ng·h/mL
same,AUC(0-t),[18],3170 ± 842 ng·h/mL
same,Cmax,[18],851 ± 285 ng/mL
same,k el,"iv, 1 mg/kg, i.v., Injection, 1 mg/kg BW, read-out: Lambda_z (converted)",5e-05 s⁻¹
same,MRT last,"po, 0.2 mg/kg, Capsule, Fasting, 0.2 mg/kg BW",8.66 ± 2.71 h
same,AUC(0-inf),[19],314 ± 220 ng·h/mL
same,AUC(0-t),[19],278 ± 158 ng·h/mL
same,Cmax,[19],27.6 ± 9.02 ng/mL
